Data published in patent US12050220B2, “Cell labeling agent and cell labeling kit” (University of Miyazaki, priority 2018, dated 2024).

Assays:
[1] = Confirmation of the reactivity of BCN-ManNAc in vitro (click reaction with FAM-tetrazine, fluorescence spectra); details: BCN-ManNAc 200 μM, FAM-tetrazine 1 μM, PBS; time-varying measurement up to 4000 s
Procedure: 2.0 mg of BCN-ManNAc was dissolved in 190 μL of DMSO and 20 mM of BCN-ManNAc solution was prepared. 1.0 mg of FAM-tetrazine was dissolved in 180 μL of DMSO and […] of FAM-tetrazine solution was prepared. 89 μL of phosphate-buffered saline (PBS) was prepared in a microtube, to which 1 μL of BCN-ManNAc solution and 10 μL of FAM-tetrazine solution were added, and the mixture was stirred well in a vortex mixer. The final concentrations of BCN-ManNAc and FAM-tetrazine in the mixture are 200 μM and 1 μM, respectively.
100 μL of the mixture was reacted at 37° C. for 1.5 hours. As a control, 100 μL of the sample of BCN-ManNAc 200 μM only was prepared. The fluorescence spectra of the mixture and control were measured using a spectrophotometer (JASCO FP-8200) (λex=492 nm, λem=517 nm). To evaluate the time dependence of the reaction of BCN-ManNAc and FAM-tetrazine, the fluorescence spectra of 100 μL of the mixture were measured up to 4000 s in the time-varying measurement mode.

HeLa cells = assay: Fluorescence imaging of cells (metabolic labeling, FAM-tetrazine staining, confocal microscopy); format: cell-based
Procedure: BCN-ManNAc was added to the medium containing 1×10^5 HeLa cells and cultured for 72 hours. The medium used was DMEM (Dulbecco's Modified Eagle's Medium) containing 10% FBS (fetal bovine serum). The final concentrations of BCN-ManNAc added to the medium were 0, 2.5, 5, 10, 20, and 25 μM. After incubation, the medium was removed and the cells were washed three times with PBS. 3.7% paraformaldehyde was added and the cells were fixed for 20 min at room temperature. A final concentration of 1 μM FAM-tetrazine was added to the plate containing the fixed cells, and the cells were incubated for 20 min at room temperature. Fluorescence measurement was performed using a confocal microscopy (Leica TCS SP8, Leica Microsystems).

acetylated BCN-modified mannosamine [BCN-ManNAc]
time at which fluorescence intensity almost reached its maximum [1]: about 1800 s
fluorescence of FAM in cells (HeLa cells; HeLa cells cultured 72 hours with 0, 2.5, 5, 10, 20, 25 μM, fixed, 1 μM FAM-tetrazine 20 min): increased in a concentration-dependent manner
fluorescence images of cells exposed to FAM-tetrazine (+) (HeLa cells; HeLa cells cultured in medium containing 25 μM, with FAM-tetrazine (+) vs without (−)): observed by fluorescence
